The test system of one assay is recombinant EBIV carrying green fluorescent protein. Nature of the assay: Antiviral drug screening with green fluorescent recombinant EBIV in BHK-21 cells, fluorescence per well by high content screening. The class given is cell-based, Ebinur Lake virus (EBIV). Conditions: Ebinur lake virus, BHK-21, 36 h, read-out: EC50 (half-maximal effect concentration). The protocol: Further, the recombinant EBIV disclosed in the examples of the present application can also be used for the screening of antiviral drugs, for example for the screening of antiviral compounds. The specific steps were as follows.
(1) A 96-well plate for BHK-21 cells was prepared. The cells were planked at 10^4 cells/well. The plate was cultured in a cell incubator with a temperature of 37° C. and a CO2 concentration of 5%. The drug screening test was conducted when the cells grew to 40-50%. The drug to be tested was dissolved in dimethyl sulfoxide. Then the drug was diluted to 100 μM with DMEM medium containing 2% FBS. After that, the drug was subjected to serial 2-fold dilution to obtain the dilution gradient with the concentration of 100 μM, 50 μM, 25 μM, 12.5 μM, 6.25 μM, 3.125 μM, and 1.5625 μM, respectively (the concentration of DMSO in the diluted drug shall be <0.1%).
(2) The original culture medium was removed from the 96-well plate. The virus was inoculated into the 96-well plate at an MOI of 0.01 and a volume of 100 μL/well. At the same time, the diluted drugs to be tested were respectively added into the same 96-well plate at 100 μL/well and mixed well with the virus solution. The plate was incubated in a cell incubator with a temperature of 37° C. and a CO2 concentration of 5% for 36 hours before detection.
(3) The 96-well plate was photographed and data was analyzed using a high content screening (HCS) system to determine the amount of fluorescence per well and calculate the Z-factor for each compound:
[formula] where the four parameters σs, σc, μs, and μc represent the standard deviation and mean of the sample to be tested (s) and the negative (c) control, respectively. The stability and sensitivity of the screening system were then assessed using the Z′-factor:
[formula] where the four parameters σp, σn, μp, and μn represent the standard deviation and mean of the positive sample (p) and the negative (n) control, respectively.
(4) Cell viability per well (and the percentage of cells remaining per well) was observed under a microscope and the half-maximal effect concentration (EC50) of the drug was calculated using GraphPad Prism 9 software and an EC50 graph was plotted.
For the molecule `NC(=O)c1ncn([C@@H]2O[C@H](CO)[C@@H](O)[C@H]2O)n1` [ribavirin, reference compound], the EC50 stood at 21.9 µM.

Staying with this assay, now noted: even at 50 μM; BHK-21 cells, MOI 0.01, 36 hours.
`NC(=O)c1nc(F)c[nH]c1=O` [favipiravir, reference compound]: the “inhibitory effect on the virus” value is given as “no inhibitory effect”.

The same assay, now with this note: high-content screening; compared with Z'-factor 0.46 of the system (25 μM ribavirin positive control).
For the molecule `CC(C)=CCC(OC(=O)C=C(C)C)C1=CC(=O)c2c(O)ccc(O)c2C1=O` (stereo not drawn) [Beta, beta-dimethyl acryl shikonin], the Z-factor came to 0.53.

`C[C@@]12C(=O)OC(=O)[C@]1(C)[C@H]1CC[C@@H]2O1` [Cantharidin]: the Z-factor is 0.50. Turning to `C[C@H](CCC(=O)O)[C@H]1CC[C@H]2[C@@H]3[C@H](O)C[C@@H]4C[C@H](O)CC[C@]4(C)[C@H]3CC[C@]12C` [Chenodeoxycholic acid, reference compound], the Z-factor is listed as 0.59.

For the molecule `COc1ccc(-c2cc(=O)c3c(O)cc(O[C@@H]4O[C@H](CO[C@@H]5O[C@@H](C)[C@H](O)[C@@H](O)[C@H]5O)[C@@H](O)[C@H](O)[C@H]4O)cc3o2)cc1O` [Diosmin, reference compound], the Z-factor is recorded as 0.58. Still for that read-out and setting: under `Oc1cc(O)c2c(c1)O[C@H](c1cc(O)c(O)c(O)c1)[C@H](O)C2` [Epigallocatechol] stands 0.51; under `CC(C)=CCc1c(O)ccc(C(=O)/C=C/c2ccc(O)cc2)c1O` [Isobavachalcone], 0.58. The same measure, in the same setting: next, `CC(C)=CCc1cc2c(cc1O)oc(=O)c1c3ccc(O)cc3oc21` [Psoralidin]: 0.46.

For `C=C[C@H]1[C@H](O[C@@H]2O[C@H](CO)[C@@H](O)[C@H](O)[C@H]2O)OC=C(C(=O)OC)[C@H]1CC(=O)O` [Secoxyloganin], the Z-factor is reported as 0.56. Clinodiside Aogenin A: the Z-factor came to 0.54.

The values above are taken from patent US12013390B2, “EBIV nucleic acid composition and application thereof” (Wuhan Institute of Virology, Chinese Academy of Sciences, priority 2022, dated 2024).
